Reference: US20040013649A1, “Cancer vaccines and methods of using the same” (Inex Pharmaceuticals Corporation, priority 2002, published 2004)
Entries after “also recorded” stand apart in the source; their conditions may differ.

Tests used:
B16 cells = assay: TRP-2 peptide vaccination, B16 pulmonary metastases; type: in vivo, mice; conditions: SC weekly ×3, then B16 cells IV
Procedure: TRP-2 and gp100 studies were conducted using the B16/BL6 murine melanoma model. B16 cells (1.0×105) were injected IV in a volume of […]. Typically, animals were vaccinated weekly for 2-3 injections and B16 cells were then administered 1-2 days after the final vaccination. Animals were terminated between days 14-18 post-B16 injection, lungs were removed, and metastases were counted using a stereomicroscope.
TRP-2 peptide was mixed with various adjuvant formulations and was administered SC weekly (×3), followed by an IV administration of B16 cells, which aggressively seed to the lung to form numerous micro metastases. […] CFA is a balanced Th1/Th2 and gave a modest response (mean=46), consistent with the E.G7-OVA studies.

E.G7-OVA [1] = assay: prophylactic efficacy of OVA / OVA257-264 vaccination, E.G7-OVA model; type: in vivo, C57/BL6 mice; set-up: anti-tumor activity / antigen specific efficacy / adjuvant activity following prophylactic vaccination: dose or concentration left out as unconfirmed; conditions: for efficacy of ODN sequences: LNA (encapsulated) forms, FIG. 35; for antigen specific efficacy / adjuvant activity following prophylactic vaccination: free or encapsulated ODN 1 mixed with OVA or OVA257-264, SC; for prophylactic effect on tumor growth: OVA257-264 peptide, LNA containing ODN 30 (PO), SC for 2 weeks, FIG. 31; for anti-tumor activity: antigen alone, once weekly vaccination, 2 injections
Procedure: Vaccinations. B6 mice were vaccinated subcutaneously (SC) with […] per injection. Dosing schedules were either q7dx2 or q4dx4 and are indicated in the individual figure legends. CFA mixtures were very viscous and had to be given with a larger gauge syringe. For humoral studies, a prime (day 0) and boost (day 14) strategy was used and blood samples were collected at various times by tail nicking.
Efficacy studies. E.G7-OVA or EL-4 thymoma cell lines were used throughout the study. These cells were cultured in vitro according to established methods. For tumor studies, 2.5×106 E.G7-OVA cells were injected subcutaneously in […] of PBS containing 1% FCS. Tumor measurements were made by repeated perpendicular measurements of tumor dimensions and using the formula: […]
Full-length OVA and the immunodominant cytotoxic T lymphocyte (CTL) peptide epitope (OVA257-264) were used to evaluate cell mediated immune responses and the prophylactic and therapeutic efficacy of OVA vaccination against the E.G7-OVA transfected cell line, using LNA both as an adjuvant and as the basis for a cancer vaccine formulation. LNA formulations for this experiment were prepared using DSPC:Chol:DODAP:PEGCer14 at a ration of 25:45:20:10
The anti-tumor activity of OVA and OVA257-264 were examined against the murine thymoma cell line, E.G7-OVA, implanted subcutaneously (SC) in C57/BL6 mice. […] Given the activity observed with the protein or peptide alone, this dose and schedule represents a useful model to evaluate adjuvants designed to boost the immune response against OVA and/or OVA257-264.
To examine LNA formulations as adjuvants, the impact of three variables were evaluated on vaccination and efficacy in the prophylactic E.G7-OVA model: (1) the activity of free vs. encapsulated ODN 1, (2) phosphodiester (PO) vs phosphorothioate (PS) ODN, and (3) full-length OVA protein vs single-epitope peptide OVA257-264 (FIGS. 30A and B). In this set of studies, free and encapsulated ODN 1 was simply mixed with antigen and administered SC near the nape of the neck. ODN and antigen doses in these studies were […], respectively.

[2] = test system: EG.7 Ova expressing tumor cells; assay: prophylactic anti-tumor efficacy, EG7-OVA tumor model, q7d×3; type: in vivo, C57BI/6 mice
Procedure: Efficacy studies. E.G7-OVA or EL-4 thymoma cell lines were used throughout the study. These cells were cultured in vitro according to established methods. […] Tumor measurements were made by repeated perpendicular measurements of tumor dimensions and using the formula: […]
Anti-tumor efficacy induced by subcutaneous immunization was assessed in C57BI/6 (5 animals per group) in a prophylactic immunization model. Mice were immunized subcutaneously with 3 injections on a q7d×3 dosing regimen on Days 0, 7 and 14 at a dose of 100 μg oligonucleotide and 20 μg of OVA antigen dose. […] Mice were monitored 3 times weekly to assess tumor growth and weight gain. Control mice were injected with one of PBS or HBS and […] of OVA antigen on the same schedule described above. Oligonucleotides were encapsulated in a lipid particle having a lipid composition of one of POPC: CHOL: DODAP:PEGCer14 or DSPC: CHOL: DODAP:PEGCer14 each in a ratio of 25:45:20:10. All comparisons of methylated and unmethylated oligonucleotides were done using like lipid particles. Results from these efficacy experiments are detailed in FIGS. 12-15, 18-21, and 25-28. Day 0 on each of the Figures is the day each animal was challenged with the tumor.

[3] = test system: IL-12, IL-6, IFN-γ and MCP-1; assay: plasma cytokine levels after i.v. injection; type: in vivo, ICR mice; conditions: for stimulation of plasma IL-6, IL-12, IFN-γ and MCP-1: encapsulated in DSPC:Chol:DODAP:PEG-CER14 20:45:25:10, i.v.
Procedure: As noted above, with non-lipid encapsulated oligonucleotides the backbone is traditionally modified so as to reduce molecular degradation by nucleases. However, on encapsulation, such a modification is no longer required to prevent degradation. To establish the effect of a different phosphate backbone on cytokine stimulation induced by lipid encapsulation, mice were injected with oligonucleotides having both PO and PS backbones, and cytokine stimulation was measured over a series of points in time (as shown in FIG. 6 and 7B) and over a sliding dosage scale as shown in FIG. 7A. In this experiment ICR mice were injected i.v. with a 20 mg ODN/kg dose of free PO ODN1, encapsulated PO-ODN1 and encapsulated PS-ODN1. […] Cytokine stimulation is generally indicative of a cellular immune response as is a chemokine response in MCP-1. Oligonucleotides were encapsulated in a lipid particle composed of DSPC:Chol:DODAP:PEG-CER14 in a ratio of 20:45:25:10.

[4] = test system: leukocytes bearing the activation marker CD69; assay: in vitro stimulation of CD69 on leukocytes in mouse whole blood; type: cell-based; conditions: oligonucleotide encapsulated in POPC:CHOL:DODMA:PEGDMG 20:45:25:10
Procedure: (§1) CD69 is a cell activation marker, which quantifies the activation of NK cells, B cells and monocytes. Expression of CD69 on NK cells indicates cell activation and production of IFN-γ, which is important to inducing a Th-1 immune response. Free and encapsulated ODN1 and 2 were tested in vitro and in vivo for their ability to induce CD69 expression. A dose of 0.1 mg/ml of ODN2 and 10 mg/ml ODN1 were used in vitro and 10 mg/kg of ODN2 and 20 mg/kg of ODN1 in vivo. Each oligonucleotide was encapsulated in a lipid particle composed of POPC:CHOL:DODMA:PEGDMG in a ratio of 20:45:25:10.
FIG. 1 illustrates the in vitro stimulation of leukocytes bearing the activation marker CD69 from treating mouse whole blood with free oligonucleotides and encapsulated oligonucleoties, specifically ODN1 and 2. When mouse whole blood was treated in vitro with free oligonucleotides there was a dose responsive increase in the amount of CD69 positive B-cells, monocytes and to some extent, NK cells, according to the amount of free oligonucleotide used 15 hours after treatment. […] However, when these same oligonucleotides were encapsulated in a lipid vesicle, the in vitro stimulation of CD69 production on these same cell types was reduced or abolished altogether.

dendritic cells = assay: expansion of dendritic cells (CD11c, DEC205) in spleen, blood and lymph nodes; type: in vivo, ICR mice; conditions: lipid encapsulated; single i.v. injection 20 mg/kg; versus PBS control = 100%
Procedure: ICR mice were immunized with a single intravenous injection of encapsulated oligonucleotides at a dose of 20 mg/kg and the control ICR mouse was injected with PBS. […] Each of these markers are specific to dendritic cells though they may represent different cell sub-populations. In each of FIGS. 4 and 5 the control was plotted as equivalent to 100% and the effect of ODN1m for each backbone configuration was plotted as a percentage of that control.

[5] = test system: leukocytes bearing the activation marker CD69; assay: in vivo stimulation of the CD69 marker after injection; set-up: species or system ICR mice; conditions: lipid encapsulated oligonucleotide; 10 mg/kg ODN2, 20 mg/kg ODN1; 16 and 24 hours after injection
Procedure: as §1
When the same oligonucleotides were tested in vivo, however, surprising results were obtained. FIG. 2 illustrates that in vivo treatment of ICR mice by injection with encapsulated or free oligonucleotides produces results that are contrary to those obtained in vitro.

E.G7-OVA [6] = assay: therapeutic efficacy of OVA vaccination, established E.G7-OVA tumors; type: in vivo, B6 mice; conditions: treatment q4d×4 once tumors had reached ~250 mm3
Source text: Currently, the clinical objective is to generate a therapeutic host immune responses that can reduce the progression of established cancers. To evaluate the effect of vaccination on therapeutic efficacy in the E.G7-OVA model, B6 mice were implanted with E.G7-OVA cells and were subsequently treated with OVA, OVA +ODN 1 or OVA +LNA/ODN 1 on a q4d×4 schedule once the tumors had reached ˜250 mm3.

[7] = TRP-2 peptide alone or mixed with free ODN or other adjuvant
[8] = encapsulated ODN (LNA) mixed with TRP-2 peptide
[9] = encapsulated form versus free at the same dose

ODN 3: 5′-TAAGCATACGGGGTGT-3, SEQ ID NO: 3; non-CpG ODN control sequence for ODN 1 (chemistry not given here)
mean number of metastases (B16 cells; [7]): 83 | mean number of metastases (B16 cells; [8]): 23

ODN 29: 5′-CAACGTTATGGGGAGA-3′, SEQ ID NO: 29; non-antisense version of ODN 1 (chemistry not given here)
efficacy of ODN sequences (E.G7-OVA [1]): strongest responses

ODN1: 5′-TAACGTTGAGGGGCAT-3, SEQ ID NO: 2, human c-myc (tested as both phosphodiester and phosphorothioate backbone forms, lipid-encapsulated, further chemistry not given here)
reduction in tumor growth ([2]; free ODN, 100 μg ODN + 20 μg OVA s.c. q7d×3, tumor challenge Day 21): showed a greater reduction in tumor growth than their methylated counterparts | reduction in tumor growth ([2]; lipid encapsulated ODN, PO backbone, 100 μg ODN + 20 μg OVA s.c. q7d×3): lost its efficacy | number of animals remaining in the study ([2]; lipid encapsulated ODN, FIG. 19B): essentially identical throughout the study | late IFN-γ peak ([3]; encapsulated PS oligonucleotides, 6 days after treatment): produced a strong IFN-γ peak; also recorded: produced an IFN-gamma peak | stimulation of plasma IL-6, IL-12, IFN-γ and MCP-1 [3]: increased IL-12 induction | mean number of metastases (B16 cells; [7]): 37 | mean number of metastases (B16 cells; [8]): 6 | stimulation of CD69 positive B-cells, monocytes and NK cells [4]: reduced the stimulation of CD69 on NK cells below the control level | expansion of CD11c positive dendritic cells (dendritic cells): stimulated the expansion of CD11c positive cells in spleen and whole blood | expansion of DEC205 positive dendritic cells (dendritic cells): stimulate the expansion of DEC205 positive cells in spleen, whole blood and lymph node | stimulation of the CD69 marker in vivo [5]: able to stimulate production of CD69 on NK cells | efficacy of ODN sequences (E.G7-OVA [1]): strongest responses | antigen specific efficacy / adjuvant activity following prophylactic vaccination (E.G7-OVA [1]): encapsulation of ODN 1 resulted in increased antigen specific efficacy

TRP-2 peptide: immunodominant MHC class I peptide epitope of TRP-2, VYDFFVWL [reference compound]
mean number of metastases (B16 cells; [7]): 82

ODN14: 5′-AACC GTT GAG GGG CAT-3′, SEQ ID NO: 14, human c-myc (AACCGTTGAGGGGCAT; tested as both phosphodiester and phosphorothioate backbone forms, lipid-encapsulated, further chemistry not given here)
increase in IFN-γ [3, 9]: 20 fold | increase in IL-6 [3, 9]: 1000 fold | increase in peak plasma IL-12 [3, 9]: 2.5 fold | stimulation of plasma IL-6, IL-12, IFN-γ and MCP-1 [3]: increased IL-12 induction

pOVA: immunodominant CTL peptide epitope OVA257-264 (ESIINFEK; UniProt P01012 257-264, looked up, fragment) [reference compound]
prophylactic effect on tumor growth (E.G7-OVA [1]): no prophylactic effect | anti-tumor activity (E.G7-OVA [1]): no anti-tumor activity was observed

mOVA: acylated OVA257-264 peptide; modified peptide with stearoyl group at the N-terminus [reference compound]
prophylactic effect on tumor growth (E.G7-OVA [1]): no prophylactic effect | anti-tumor activity (E.G7-OVA [1]): no anti-tumor activity was observed

B1: OVA: Hen egg albumin (ovalbumin), full-length protein, model tumor-associated antigen (protein, UniProt P01012 1-386, looked up)
chain: MGSIGAASMEFCFDVFKELKVHHANENIFYCPIAIMSALAMVYLGAKDSTRTQINKVVRFDKLPGFGDSIEAQCGTSVNVHSSLRDILNQITKPNDVYSFSLASRLYAEERYPILPEYLQCVKELYRGGLEPINFQTAADQARELINSWVESQTNGIIRNVLQPSSVDSQTAMVLVNAIVFKGLWEKAFKDEDTQAMPFRVTEQESKPVQMMYQIGLFRVASMASEKMKILELPFASGTMSMLVLLPDEVSGLEQLESIINFEKLTEWTSSNVMEERKIKVYLPRMKMEEKYNLTSVLMAMGITDVFSSSANLSGISSAESLKISQAVHAAHAEINEAGREVVGSAEAGVDAASVSEEFRADHPFLFCIKHIATNAVLFFGRCVSP
modifications: full-length
notes: Hen egg albumin (ovalbumin), full-length protein, model tumor-associated antigen
anti-tumor activity (E.G7-OVA [1]): Anti-tumor activity was observed | antigen specific efficacy / adjuvant activity following prophylactic vaccination (E.G7-OVA [1]): dramatically improved immune responses and efficacy | tumor growth of established tumors (E.G7-OVA [6]): no delay in tumor growth
